Experiments:
Format in all cases: cell-based
[1] = biological target: T1, Proprotein convertase subtilisin/kexin type 9 (Homo sapiens, UniProt Q8NBP7); test: Inhibition of human PCSK9 in HepG2 cells incubated for 48 hrs by AlphaLISA assay
HepG2 [2] = test: Cytotoxicity against human HepG2 cells incubated for 24 hrs by MTT assay; settings: hepg2, 24 h
HepG2 [3] = test: Cytotoxicity against human HepG2 cells at <50 uM incubated for 24 hrs by MTT assay; settings: hepg2, 24 h
[4] = biological target: T1, Proprotein convertase subtilisin/kexin type 9; test: Inhibition of human PCSK9 in HepG2 cells incubated for 24 hrs followed by medium replenishment and measured after 24 hrs by ELISA

T1 sequence (Q8NBP7 31-152 limits assumed): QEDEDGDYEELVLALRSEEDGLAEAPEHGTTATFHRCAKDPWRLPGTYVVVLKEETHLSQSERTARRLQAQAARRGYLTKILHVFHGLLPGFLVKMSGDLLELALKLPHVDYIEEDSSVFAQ
T1 sequence (Q8NBP7 153-692 limits assumed): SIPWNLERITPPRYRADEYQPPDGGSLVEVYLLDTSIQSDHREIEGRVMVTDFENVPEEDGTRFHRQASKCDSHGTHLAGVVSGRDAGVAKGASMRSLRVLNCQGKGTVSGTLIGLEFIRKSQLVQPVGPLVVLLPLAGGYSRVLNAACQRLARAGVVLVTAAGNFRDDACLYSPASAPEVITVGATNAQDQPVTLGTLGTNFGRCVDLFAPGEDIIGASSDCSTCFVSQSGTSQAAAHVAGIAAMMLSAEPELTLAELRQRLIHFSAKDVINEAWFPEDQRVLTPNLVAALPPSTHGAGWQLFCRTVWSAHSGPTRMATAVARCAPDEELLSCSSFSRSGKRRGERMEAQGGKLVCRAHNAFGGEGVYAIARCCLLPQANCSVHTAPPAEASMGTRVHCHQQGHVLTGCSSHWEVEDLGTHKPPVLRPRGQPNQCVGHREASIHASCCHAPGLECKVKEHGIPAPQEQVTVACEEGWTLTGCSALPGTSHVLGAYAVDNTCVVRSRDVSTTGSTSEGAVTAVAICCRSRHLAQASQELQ

| IC50 ([1]; hepg2) | IC50 ([1]; read-out: IC50) [nM] | IC50 [4] [nM] | Compound | Activity (HepG2 [2]) [µM] | Activity (HepG2 [3]) |
| --- | --- | --- | --- | --- | --- |
| Not Active |  |  | Brc1ccc2[nH]cc(Cc3cc4ccccc4[nH]3)c2c1 |  |  |
|  | 2800 |  | Clc1cccc2c(Cc3cc4ccccc4[nH]3)c[nH]c12 | > 50 |  |
|  | 1500 |  | Cc1ccc(S(=O)(=O)n2c(Cc3cn(C)c4ccccc34)c(C)c3ccccc32)cc1 | 45 |  |
|  | 5600 |  | Cc1ccc2[nH]cc(Cc3cc4ccccc4[nH]3)c2c1 | > 50 |  |
|  | 1400 |  | Cc1ccc2c(Cc3cc4ccccc4[nH]3)c[nH]c2c1 | 45 |  |
|  | 300 |  | Fc1cccc2c(Cc3cc4ccccc4[nH]3)c[nH]c12 | 38 |  |
|  |  | 202 | Fc1ccc2[nH]c(Cc3c[nH]c4c(F)cccc34)cc2c1 |  | Non-Toxic |
|  | 900 |  | Cc1cccc2c(Cc3cc4ccccc4[nH]3)c[nH]c12 | > 50 |  |
|  | 2300 |  | Cc1ccc(S(=O)(=O)n2c(Cc3cn(C)c4ccccc34)c(-c3ccccc3)c3ccccc32)cc1 | 48 |  |
|  | 10000 |  | Clc1ccc2[nH]cc(Cc3cc4ccccc4[nH]3)c2c1 | > 50 |  |
|  | 250 |  | Fc1ccc2[nH]c(Cc3c[nH]c4c(Cl)cccc34)cc2c1 | > 50 |  |
|  | 2300 |  | Cc1ccc(S(=O)(=O)n2c(Cc3c[nH]c4c(Cl)cccc34)c(C)c3ccccc32)cc1 | > 50 |  |
|  | 1100 |  | Cc1ccc(S(=O)(=O)n2c(Cc3cn(C)c4ccccc34)c(C(C)C)c3ccccc32)cc1 | > 50 |  |
